The subject of one experiment is collagen1A2. Kind of experiment: RT-PCR for collagen1A2 in bleomycin treated mice. It is filed as in vivo. Conditions: 5 mgs/Kg/day s.c., versus saline/saline mice.
In the next experiment the test system is E-Cadherin. Description: Western blot for E-Cadherin in IPF patient fibroblasts. In kind it is cell-based, human. Conditions: RPMI1640+10% FBS, 2 days, also true at the mRNA level. The protocol: (§1) Western blots for S100A4 (also know as FSP-1 or fibroblast specific protein-1) and E-Cadherin were performed on whole cell lysates.
For orientation: A western blot detects proteins with antibodies after separation by electrophoresis.

The subject of experiment [1] is bleomycin induced pulmonary fibrosis. Kind of experiment: Bleomycin induced pulmonary fibrosis in C57/B16 mice, trichrome histology, body weight, survival. It is filed as in vivo. The procedure:
Murine models of bleomycin induced fibrosis have been developed in order to study fibrotic disease progression.
There is an absence of airway epithelium in lower left compared to upper left (see arrow heads) and extensive collagen deposition (lower left). On the sixth day, either saline (upper right) or ICG-001 (5 mgs/Kg/day) was administered for 10 days after which the mice were sacrificed and sectioned. Of interest is the upper right (saline treatment) showing lack of normal airway epithelialization, extensive collagen deposition and intra-airway hypercellularity (fibroblasts and inflammatory influx).

The next experiment concerns S100A4 (FSP-1). Description: Western blot for S100A4 in IPF patient fibroblasts. In kind it is cell-based, human. Conditions: RPMI1640+10% FBS, 2 days, also true at the mRNA level. The procedure: as §1
Experiment [2] concerns the target β-catenin/p300 interaction (Homo sapiens, UniProt Q09472). Conditions: cited from earlier work.
The target in experiment [3] is β-catenin/CBP interaction (Homo sapiens, UniProt Q92793). Conditions: cited from earlier work.
Chain of β-catenin/CBP interaction (Q92793 whole entry): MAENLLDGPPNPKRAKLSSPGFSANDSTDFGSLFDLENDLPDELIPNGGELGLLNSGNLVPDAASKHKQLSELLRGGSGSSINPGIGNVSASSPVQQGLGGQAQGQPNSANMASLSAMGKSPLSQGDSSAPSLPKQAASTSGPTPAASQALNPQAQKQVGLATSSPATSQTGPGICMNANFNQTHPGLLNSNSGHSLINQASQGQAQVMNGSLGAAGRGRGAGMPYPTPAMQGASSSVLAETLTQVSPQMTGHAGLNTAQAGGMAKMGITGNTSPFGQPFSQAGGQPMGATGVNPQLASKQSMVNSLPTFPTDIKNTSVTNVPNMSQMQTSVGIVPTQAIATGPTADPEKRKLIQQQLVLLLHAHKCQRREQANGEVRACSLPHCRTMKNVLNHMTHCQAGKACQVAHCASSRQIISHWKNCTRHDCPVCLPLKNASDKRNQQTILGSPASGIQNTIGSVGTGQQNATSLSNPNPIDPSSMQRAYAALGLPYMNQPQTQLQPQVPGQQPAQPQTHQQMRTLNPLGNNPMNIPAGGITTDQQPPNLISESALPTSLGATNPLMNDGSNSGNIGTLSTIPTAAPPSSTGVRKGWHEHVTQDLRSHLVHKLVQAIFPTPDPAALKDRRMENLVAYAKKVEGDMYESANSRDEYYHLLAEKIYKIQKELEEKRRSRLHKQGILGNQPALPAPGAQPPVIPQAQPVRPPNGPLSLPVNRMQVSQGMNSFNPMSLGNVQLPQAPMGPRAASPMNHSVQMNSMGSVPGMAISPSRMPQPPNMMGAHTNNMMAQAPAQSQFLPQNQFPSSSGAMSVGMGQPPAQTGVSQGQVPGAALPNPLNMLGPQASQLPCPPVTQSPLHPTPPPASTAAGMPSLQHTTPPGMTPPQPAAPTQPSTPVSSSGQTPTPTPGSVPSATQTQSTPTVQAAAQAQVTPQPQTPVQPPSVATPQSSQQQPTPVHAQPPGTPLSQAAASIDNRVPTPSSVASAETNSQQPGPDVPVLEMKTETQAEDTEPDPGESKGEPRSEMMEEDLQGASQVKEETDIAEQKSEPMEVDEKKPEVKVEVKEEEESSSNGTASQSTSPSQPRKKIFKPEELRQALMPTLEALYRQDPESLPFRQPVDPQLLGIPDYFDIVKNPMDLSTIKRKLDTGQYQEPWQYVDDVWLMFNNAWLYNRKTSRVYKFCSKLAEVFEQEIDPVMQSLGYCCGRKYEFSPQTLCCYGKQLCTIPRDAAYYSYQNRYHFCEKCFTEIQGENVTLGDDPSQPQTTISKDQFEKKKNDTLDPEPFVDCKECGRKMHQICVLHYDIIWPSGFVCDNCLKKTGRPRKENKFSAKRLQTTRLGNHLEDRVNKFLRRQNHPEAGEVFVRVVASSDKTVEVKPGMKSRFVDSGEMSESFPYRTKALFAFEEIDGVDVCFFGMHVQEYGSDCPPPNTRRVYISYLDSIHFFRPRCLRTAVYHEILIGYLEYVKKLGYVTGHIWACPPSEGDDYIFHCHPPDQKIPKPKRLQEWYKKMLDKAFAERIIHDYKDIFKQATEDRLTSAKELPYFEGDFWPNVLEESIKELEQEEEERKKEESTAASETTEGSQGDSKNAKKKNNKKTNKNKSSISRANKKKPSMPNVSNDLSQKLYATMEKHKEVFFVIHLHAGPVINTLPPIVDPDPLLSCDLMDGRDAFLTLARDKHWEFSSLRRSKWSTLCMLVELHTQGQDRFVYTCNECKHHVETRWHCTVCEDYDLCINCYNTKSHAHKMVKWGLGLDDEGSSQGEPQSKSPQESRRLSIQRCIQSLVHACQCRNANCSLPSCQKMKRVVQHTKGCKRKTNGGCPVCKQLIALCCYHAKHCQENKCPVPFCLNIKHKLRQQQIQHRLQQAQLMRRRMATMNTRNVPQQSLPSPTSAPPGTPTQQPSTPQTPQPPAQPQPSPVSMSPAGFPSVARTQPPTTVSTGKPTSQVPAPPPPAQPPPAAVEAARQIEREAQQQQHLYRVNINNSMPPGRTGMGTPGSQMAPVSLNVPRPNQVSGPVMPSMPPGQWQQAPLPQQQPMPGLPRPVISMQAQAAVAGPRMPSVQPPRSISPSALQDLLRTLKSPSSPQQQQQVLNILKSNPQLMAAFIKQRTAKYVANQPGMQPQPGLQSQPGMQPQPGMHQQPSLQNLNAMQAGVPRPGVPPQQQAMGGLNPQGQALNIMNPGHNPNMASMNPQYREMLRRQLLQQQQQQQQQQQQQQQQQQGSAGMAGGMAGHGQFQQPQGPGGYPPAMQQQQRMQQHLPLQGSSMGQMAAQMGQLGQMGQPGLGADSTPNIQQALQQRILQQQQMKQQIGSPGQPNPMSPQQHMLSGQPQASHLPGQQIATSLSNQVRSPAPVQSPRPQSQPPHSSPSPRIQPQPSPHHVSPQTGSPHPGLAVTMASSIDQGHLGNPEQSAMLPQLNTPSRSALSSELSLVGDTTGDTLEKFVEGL
The subject of experiment [4] is TCF/β-catenin transcription. Description: Bat-Gal transgenic mice, bleomycin model, X-Gal/β-galactosidase read out of TCF/β-catenin transcription. It is filed as in vivo. Conditions: 5 mg/Kg/day s.c., intratracheal bleomycin. The procedure:
Furthermore, utilizing a specific inhibitor of Wnt/β-catenin/CBP driven transcription (ICG-001, 5 mg/Kg/day s.c.) Wnt/β-catenin was inhibited by >95% as judged by β-galactogidase activity. ICG-001 is among the structures described in detail below.
Using this murine model of pulmonary fibrosis in transgenic Bat-al mice, ICG-001 (5 mg/Kg/day) blocked >95% of bleomycin-induced TCF/βcatenin transcription.
These mice have a Beta-Galactosidase transgene driven by a TCF/Catenin driven promoter (i.e. a read out for activated Wnt/catenin signaling). The mice were given intratracheal saline or bleomycin and either treated with ICG-001 (5 mgs/Kg/day subcutaneously) or saline as vehicle control. The mice were sacrificed and the lungs sectioned and stained with X-Gal (blue color) A) intratracheal bleo+saline. B) intracheal bleo+ICG-001 C) saline+saline.
The dose was selected because ICG-001 reduces TCF/βCatenin driven O-Galactosidase expression >95% at 5 mgs/Kg/day.

In a further experiment the test system is S100A4. Description: RT-PCR for S100A4 in bleomycin treated mice. It is filed as in vivo. Conditions: 5 mgs/Kg/day s.c., versus saline/saline mice.
Where [5] appears, read: 5 mgs/Kg/day for 10 days from the sixth day after intratracheal bleomycin.

These results are taken from patent publication US20080153743A1, “METHODS RELATING TO THE TREATMENT OF FIBROSIS” (UNIVERSITY OF WASHINGTON, priority 2005, published 2008).

Structures are written as SMILES.

Chain of β-catenin/p300 interaction (Q09472 whole entry): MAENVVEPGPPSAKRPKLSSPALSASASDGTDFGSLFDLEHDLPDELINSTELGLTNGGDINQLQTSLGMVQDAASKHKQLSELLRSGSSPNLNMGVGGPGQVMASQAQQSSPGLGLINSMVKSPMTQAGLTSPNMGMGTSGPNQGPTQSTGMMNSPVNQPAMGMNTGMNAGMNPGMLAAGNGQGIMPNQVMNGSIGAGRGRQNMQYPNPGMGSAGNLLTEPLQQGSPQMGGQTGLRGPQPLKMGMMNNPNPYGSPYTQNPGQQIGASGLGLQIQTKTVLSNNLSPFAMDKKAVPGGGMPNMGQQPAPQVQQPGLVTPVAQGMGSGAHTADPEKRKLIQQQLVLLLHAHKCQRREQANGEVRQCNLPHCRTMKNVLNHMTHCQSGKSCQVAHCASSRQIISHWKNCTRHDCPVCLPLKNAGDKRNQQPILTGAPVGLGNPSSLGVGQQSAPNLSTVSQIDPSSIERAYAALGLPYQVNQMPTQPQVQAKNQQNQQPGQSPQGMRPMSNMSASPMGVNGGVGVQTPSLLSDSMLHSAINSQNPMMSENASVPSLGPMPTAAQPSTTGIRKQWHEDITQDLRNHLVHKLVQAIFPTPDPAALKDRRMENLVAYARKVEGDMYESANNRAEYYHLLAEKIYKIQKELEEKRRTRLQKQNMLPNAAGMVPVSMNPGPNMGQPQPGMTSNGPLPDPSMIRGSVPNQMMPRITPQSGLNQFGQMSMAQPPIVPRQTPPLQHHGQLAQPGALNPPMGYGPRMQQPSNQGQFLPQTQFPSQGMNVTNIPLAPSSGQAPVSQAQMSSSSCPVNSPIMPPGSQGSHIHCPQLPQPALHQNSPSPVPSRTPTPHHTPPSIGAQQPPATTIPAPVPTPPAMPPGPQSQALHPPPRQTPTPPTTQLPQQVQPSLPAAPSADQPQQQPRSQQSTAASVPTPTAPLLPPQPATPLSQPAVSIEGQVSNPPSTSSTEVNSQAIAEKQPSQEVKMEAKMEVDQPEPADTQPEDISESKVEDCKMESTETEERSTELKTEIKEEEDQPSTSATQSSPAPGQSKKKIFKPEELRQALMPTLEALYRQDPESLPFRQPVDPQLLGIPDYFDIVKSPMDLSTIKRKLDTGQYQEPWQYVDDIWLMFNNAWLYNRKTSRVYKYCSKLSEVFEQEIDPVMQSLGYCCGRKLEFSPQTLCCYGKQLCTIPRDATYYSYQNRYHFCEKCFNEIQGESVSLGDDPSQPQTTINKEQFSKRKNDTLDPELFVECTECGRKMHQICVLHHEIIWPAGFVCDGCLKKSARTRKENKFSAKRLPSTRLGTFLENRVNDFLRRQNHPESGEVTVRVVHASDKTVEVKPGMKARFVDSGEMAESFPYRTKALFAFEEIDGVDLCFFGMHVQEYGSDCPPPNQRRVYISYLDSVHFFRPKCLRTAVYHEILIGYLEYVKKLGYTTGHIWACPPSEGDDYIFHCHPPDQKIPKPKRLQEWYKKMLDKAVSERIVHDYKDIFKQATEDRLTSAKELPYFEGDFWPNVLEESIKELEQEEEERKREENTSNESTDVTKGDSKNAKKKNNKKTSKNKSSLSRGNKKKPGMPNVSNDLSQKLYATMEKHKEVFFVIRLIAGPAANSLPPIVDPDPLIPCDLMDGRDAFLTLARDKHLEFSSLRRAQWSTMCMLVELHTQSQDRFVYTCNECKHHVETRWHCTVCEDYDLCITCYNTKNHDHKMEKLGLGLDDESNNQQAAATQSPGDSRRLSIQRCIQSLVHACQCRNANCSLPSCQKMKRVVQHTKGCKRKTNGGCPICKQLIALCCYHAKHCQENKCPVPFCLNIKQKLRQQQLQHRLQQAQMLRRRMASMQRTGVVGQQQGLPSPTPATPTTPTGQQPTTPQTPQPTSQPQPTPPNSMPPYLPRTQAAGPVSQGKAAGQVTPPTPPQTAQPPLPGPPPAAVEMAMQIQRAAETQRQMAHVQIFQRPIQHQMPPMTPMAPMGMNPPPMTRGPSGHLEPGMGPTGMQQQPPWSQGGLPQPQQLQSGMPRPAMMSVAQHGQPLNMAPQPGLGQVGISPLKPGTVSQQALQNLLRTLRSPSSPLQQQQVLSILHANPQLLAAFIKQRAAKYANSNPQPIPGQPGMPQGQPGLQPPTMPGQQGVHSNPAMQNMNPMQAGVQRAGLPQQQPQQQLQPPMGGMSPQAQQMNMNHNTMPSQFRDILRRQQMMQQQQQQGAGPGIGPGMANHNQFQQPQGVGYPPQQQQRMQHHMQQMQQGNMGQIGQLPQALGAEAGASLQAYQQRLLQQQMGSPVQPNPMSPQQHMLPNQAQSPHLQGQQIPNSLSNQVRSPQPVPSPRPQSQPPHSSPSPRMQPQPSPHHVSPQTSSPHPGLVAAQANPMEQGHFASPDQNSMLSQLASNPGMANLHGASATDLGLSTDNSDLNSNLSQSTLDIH

Turning to `O=C1[C@H](Cc2ccc(O)cc2)N2C(=O)CCN(C(=O)NCc3ccccc3)[C@H]2CN1Cc1cccc2ccccc12` [ICG-001], the “collagen1A2 message (RT-PCR)” value with collagen1A2 is “reduced essentially to negative control”. In the experiment on E-Cadherin, the “E-cadherin expression (Western blot, whole cell lysates)” value was “increased E-cadherin expression”. Besides, in experiment [1] (5 mg/Kg/day, murine bleomycin model), the “disease progression, as judged by reduced mortality, histopathology and endogenous gene expression” value is “not only halts but reverses disease progression”. In addition, in experiment [1] (setting [5]), the “airway histology (lung sections)” value is on record as “the airway looks essentially normal”, the body weight entry is given as “regained normal body weight” and the “collagen levels (trichrome stain)” value is “normal collagen levels”. Moreover, the survival result in experiment [1] (5 mgs/Kg/day for 10 days from the sixth day after intratracheal bleomycin, untreated controls did not survive) was “survived”. Besides, the “S100A4 expression (Western blot, whole cell lysates)” value with S100A4 (FSP-1) is “decreased S100A4 expression”. Also, the “effect on β-catenin/p300 interaction” value in experiment [2] is listed as “without interfering”. In addition, the “effect on β-catenin/CBP interaction” value in experiment [3] was “selectively blocks the β-catenin/CBP interaction”. In experiment [4], the “inhibition of bleomycin-induced TCF/β-catenin transcription (β-galactosidase activity)” value is greater than 95%. Besides, the “S100A4 message (RT-PCR)” value with S100A4 is “reduced essentially to negative control”.
